# Test results reported in patent publication US4347252A, “Rodenticidal 1-(3,5-bistrifluoromethylphenyl)-3-(4-t-butylpiperidino)prop-1-yne” (priority 1980, dated 1982).
# How the values were obtained:
# [1] = tested on: mice (laboratory strain); experiment: Acute Oral Toxicity in Mice (Laboratory Strain); assay type: in vivo
# Method: Acute Oral Toxicity in Mice (Laboratory Strain)
# Groups of mice were dosed orally with graded doses of the test compound in aqueous suspension and observed until there had been no deaths for at least three days. The acute oral LD50, that is to say the dose in mg/kg animal body weight necessary to kill 50% of the mice, was determined from the numbers of animals for each dose which died during the observation period by reference to published tables.
# [2] = tested on: rodents
structure (smiles),measurement,setting,value
"CC(C)(C)C1CCN(CC#Cc2cc(C(F)(F)F)cc(C(F)(F)F)c2)CC1 [Compound of formula I as free base, 1-(3,5-bistrifluoromethylphenyl)-3-(4-tert-butylpiperidino)prop-1-yne]",LD50 (acute oral),[1]; aqueous suspension,68 mg/kg animal body weight
same,Observations: signs of poisoning,[1]; prior to death / after dosing,Some signs of poisoning
same,major symptom of toxicity,[2]; in vivo,sedation is the major symptom of toxicity
same,manner of death of treated animals,[2]; in vivo,"die quietly, without exhibiting signs of distress"
same,period of delay between ingestion and death compared with anticoagulant rodenticides,[2]; vs anticoagulant rodenticides,shorter
same,toxicity to strains of rodents resistant to anticoagulant rodenticides,[2]; vs strains which do not possess this resistance,equally as toxic
